Where two headings read alike, the source gives them in different places.
What was measured:
Test in all cases: biochemical
Set-up in all cases: Eurofins KinaseProfiler full panel at Km ATP, residual kinase activity (%) relative to DMSO
PIP5K1g(h) = biological target: T1, PIP5K1g(h) (Homo sapiens, UniProt O60331)
T1 construct: gene PIP5K1C
In short: (§1)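 Radiometric kinase activity assays were run with ATP at Km and compounds at 10 µM, and remaining activity (%) was reported. A separate competitive binding screen measured DNA-tagged kinase displaced from immobilized active-site ligands by qPCR, giving percent kinase still bound at 10 µM compound in DMSO.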

VRK1(h) = biological target: T2, VRK1(h) (Homo sapiens, UniProt Q99986)
T2 sequence (Q99986 1-396): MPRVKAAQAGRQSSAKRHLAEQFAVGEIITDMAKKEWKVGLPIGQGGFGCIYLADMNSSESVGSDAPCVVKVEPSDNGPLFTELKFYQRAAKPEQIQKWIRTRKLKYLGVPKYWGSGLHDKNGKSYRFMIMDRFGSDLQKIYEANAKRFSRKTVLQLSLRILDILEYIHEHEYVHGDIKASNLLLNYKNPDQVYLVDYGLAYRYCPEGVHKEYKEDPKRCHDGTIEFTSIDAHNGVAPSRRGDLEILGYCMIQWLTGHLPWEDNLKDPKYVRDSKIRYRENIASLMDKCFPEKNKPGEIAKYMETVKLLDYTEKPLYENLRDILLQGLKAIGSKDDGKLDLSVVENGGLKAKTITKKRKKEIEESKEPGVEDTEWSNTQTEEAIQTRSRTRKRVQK
In short: as §1

TTBK1(h) = TTBK1(h) (Homo sapiens, UniProt Q5TCY1)
In short: as §1

PDGFRβ(h) = biological target: T3, PDGFRβ(h) (Homo sapiens, UniProt P09619)
T3 construct: gene PDGFRB
T3 sequence (P09619 whole entry): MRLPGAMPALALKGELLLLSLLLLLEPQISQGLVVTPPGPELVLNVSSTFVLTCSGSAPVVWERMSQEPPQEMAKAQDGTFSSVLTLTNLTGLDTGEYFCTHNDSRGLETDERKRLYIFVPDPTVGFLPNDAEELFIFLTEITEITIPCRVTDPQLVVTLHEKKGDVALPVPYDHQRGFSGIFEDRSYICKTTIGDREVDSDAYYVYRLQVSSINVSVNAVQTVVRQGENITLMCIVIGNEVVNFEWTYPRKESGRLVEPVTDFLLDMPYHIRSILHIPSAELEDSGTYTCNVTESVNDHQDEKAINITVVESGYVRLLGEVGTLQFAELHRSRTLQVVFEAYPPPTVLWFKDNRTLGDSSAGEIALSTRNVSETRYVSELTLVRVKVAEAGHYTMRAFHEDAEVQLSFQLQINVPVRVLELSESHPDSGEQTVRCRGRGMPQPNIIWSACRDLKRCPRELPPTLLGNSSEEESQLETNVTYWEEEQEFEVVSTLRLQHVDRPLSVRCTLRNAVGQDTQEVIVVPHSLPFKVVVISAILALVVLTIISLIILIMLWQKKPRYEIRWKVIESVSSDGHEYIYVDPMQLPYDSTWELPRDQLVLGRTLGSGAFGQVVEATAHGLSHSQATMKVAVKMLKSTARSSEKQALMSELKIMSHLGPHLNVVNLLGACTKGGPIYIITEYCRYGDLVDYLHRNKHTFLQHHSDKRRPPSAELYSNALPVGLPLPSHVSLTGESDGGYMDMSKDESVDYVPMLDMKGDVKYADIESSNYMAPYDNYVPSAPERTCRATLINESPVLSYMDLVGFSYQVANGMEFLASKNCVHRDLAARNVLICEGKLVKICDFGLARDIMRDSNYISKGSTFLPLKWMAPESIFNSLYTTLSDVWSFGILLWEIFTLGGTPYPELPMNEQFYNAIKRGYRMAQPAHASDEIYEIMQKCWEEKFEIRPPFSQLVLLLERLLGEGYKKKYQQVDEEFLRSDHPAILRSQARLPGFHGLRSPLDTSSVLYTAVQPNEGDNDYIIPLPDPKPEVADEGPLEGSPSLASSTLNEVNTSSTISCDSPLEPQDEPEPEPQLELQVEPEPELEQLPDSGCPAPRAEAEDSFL
In short: as §1

ALK6(h) = biological target: T4, ALK6(h) (Homo sapiens, UniProt O00238)
T4 construct: gene BMPR1B
T4 sequence (O00238 whole entry): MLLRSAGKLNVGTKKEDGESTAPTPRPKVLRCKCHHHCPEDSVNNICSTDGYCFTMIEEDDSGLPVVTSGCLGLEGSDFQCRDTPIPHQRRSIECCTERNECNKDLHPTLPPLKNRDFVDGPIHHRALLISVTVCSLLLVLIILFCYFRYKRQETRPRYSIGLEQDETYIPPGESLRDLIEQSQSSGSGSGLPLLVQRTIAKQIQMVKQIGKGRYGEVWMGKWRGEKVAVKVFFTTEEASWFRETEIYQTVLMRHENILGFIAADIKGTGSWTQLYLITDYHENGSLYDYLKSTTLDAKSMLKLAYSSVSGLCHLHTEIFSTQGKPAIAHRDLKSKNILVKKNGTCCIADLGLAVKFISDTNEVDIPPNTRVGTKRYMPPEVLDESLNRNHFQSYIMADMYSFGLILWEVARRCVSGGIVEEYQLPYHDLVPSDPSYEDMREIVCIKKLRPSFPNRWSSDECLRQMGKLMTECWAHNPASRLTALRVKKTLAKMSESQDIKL
In short: as §1

Blk(h) = Blk(h) (Homo sapiens, UniProt P51451)
Blk(h), sequence (P51451 whole entry): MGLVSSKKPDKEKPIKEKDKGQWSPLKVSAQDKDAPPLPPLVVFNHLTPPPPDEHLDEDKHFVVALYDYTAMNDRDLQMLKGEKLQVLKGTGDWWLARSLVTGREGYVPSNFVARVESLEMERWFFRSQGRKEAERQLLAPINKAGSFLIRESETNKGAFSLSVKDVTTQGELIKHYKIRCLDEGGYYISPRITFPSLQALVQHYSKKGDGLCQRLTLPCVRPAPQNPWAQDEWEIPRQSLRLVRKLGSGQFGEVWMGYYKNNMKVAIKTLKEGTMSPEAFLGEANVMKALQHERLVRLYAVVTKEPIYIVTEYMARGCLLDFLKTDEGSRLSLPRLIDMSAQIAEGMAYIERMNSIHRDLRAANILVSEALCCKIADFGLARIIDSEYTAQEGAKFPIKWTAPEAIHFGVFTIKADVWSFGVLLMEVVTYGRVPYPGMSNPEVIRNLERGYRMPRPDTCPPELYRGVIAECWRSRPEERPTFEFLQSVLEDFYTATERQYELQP
In short: as §1

Cdc7/cyclinB1(h) = Cdc7/cyclinB1(h) (Homo sapiens, UniProt O00311)
Cdc7/cyclinB1(h), sequence (O00311 whole entry): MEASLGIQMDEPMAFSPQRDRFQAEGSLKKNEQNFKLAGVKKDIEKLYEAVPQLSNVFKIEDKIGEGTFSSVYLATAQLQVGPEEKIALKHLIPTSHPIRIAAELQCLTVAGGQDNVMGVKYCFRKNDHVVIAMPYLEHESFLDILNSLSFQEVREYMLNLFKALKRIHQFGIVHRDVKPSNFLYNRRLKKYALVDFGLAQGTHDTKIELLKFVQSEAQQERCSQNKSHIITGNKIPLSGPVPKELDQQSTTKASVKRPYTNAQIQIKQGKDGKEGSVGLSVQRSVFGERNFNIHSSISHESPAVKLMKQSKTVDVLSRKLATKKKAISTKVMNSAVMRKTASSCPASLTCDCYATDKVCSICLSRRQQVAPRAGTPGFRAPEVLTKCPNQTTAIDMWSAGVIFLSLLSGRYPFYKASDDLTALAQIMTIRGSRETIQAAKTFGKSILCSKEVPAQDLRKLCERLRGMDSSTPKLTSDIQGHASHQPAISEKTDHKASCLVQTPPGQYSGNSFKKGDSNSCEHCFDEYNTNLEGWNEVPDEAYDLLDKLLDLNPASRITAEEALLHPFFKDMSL
Cdc7/cyclinB1(h), sequence (P14635 whole entry partner): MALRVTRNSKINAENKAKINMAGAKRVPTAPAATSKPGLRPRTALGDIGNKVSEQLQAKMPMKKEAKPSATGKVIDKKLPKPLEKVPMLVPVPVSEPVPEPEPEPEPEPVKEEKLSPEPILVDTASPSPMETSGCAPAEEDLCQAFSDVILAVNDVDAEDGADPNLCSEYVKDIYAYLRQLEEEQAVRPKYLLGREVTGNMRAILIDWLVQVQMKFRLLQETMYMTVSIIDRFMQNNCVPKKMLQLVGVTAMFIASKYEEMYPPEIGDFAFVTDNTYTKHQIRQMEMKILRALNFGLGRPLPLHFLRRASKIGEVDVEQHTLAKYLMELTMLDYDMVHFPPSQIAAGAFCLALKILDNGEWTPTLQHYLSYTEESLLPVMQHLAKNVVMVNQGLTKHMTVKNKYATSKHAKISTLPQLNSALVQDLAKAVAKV
In short: as §1

[1] = read-out: Residual activity (%) Spautin-1 5aa
[2] = read-out: Residual activity (%) 5as
[3] = read-out: Residual activity (%) 5at
[4] = read-out: Residual activity (%) 5ay

T1 sequence (O60331 whole entry): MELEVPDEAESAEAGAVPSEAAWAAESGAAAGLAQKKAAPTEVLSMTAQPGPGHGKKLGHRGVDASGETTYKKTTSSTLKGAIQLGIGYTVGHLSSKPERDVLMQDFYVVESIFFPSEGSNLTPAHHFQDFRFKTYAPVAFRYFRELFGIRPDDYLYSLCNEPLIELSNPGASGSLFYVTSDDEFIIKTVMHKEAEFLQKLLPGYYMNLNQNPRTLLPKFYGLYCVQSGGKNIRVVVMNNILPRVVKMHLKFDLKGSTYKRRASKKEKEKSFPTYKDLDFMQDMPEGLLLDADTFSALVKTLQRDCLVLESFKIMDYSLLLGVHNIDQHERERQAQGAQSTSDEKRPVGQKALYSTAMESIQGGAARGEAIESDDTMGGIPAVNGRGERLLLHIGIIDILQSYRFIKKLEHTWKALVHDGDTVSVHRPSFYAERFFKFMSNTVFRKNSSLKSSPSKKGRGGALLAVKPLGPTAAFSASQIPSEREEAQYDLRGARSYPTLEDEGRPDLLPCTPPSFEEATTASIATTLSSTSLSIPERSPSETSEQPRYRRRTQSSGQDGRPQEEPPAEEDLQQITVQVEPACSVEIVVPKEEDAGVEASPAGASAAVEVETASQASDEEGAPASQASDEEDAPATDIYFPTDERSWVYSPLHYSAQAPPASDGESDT

In the case of `Fc1ccc(CNc2ncnc3ccc(F)cc23)cc1` [5aa, 6-Fluoro-N-(4-fluorobenzyl)-4-Quinazolinamine], the remaining activity at 10 µM (PIP5K1g(h); [1]) was 100%, the remaining activity at 10 µM (VRK1(h); [1]) was 94% and the remaining activity at 10 µM (TTBK1(h); [1]) was 119%. For the same molecule, the remaining activity at 10 µM (PDGFRβ(h); [1]) was 97%, the remaining activity at 10 µM (ALK6(h); [1]) was 94% and the remaining activity at 10 µM (Blk(h); [1]) was 97%. The remaining activity at 10 µM (Cdc7/cyclinB1(h); [1]) was 92%.
Work on `Fc1ccc(CCNc2ncnc3ccc(F)cc23)cc1` [5as, 6-Fluoro-N-[2-(4-Fluorophenyl)Ethyl]-4-Quinazolinamine] yielded a remaining activity at 10 µM (PIP5K1g(h); [2]) of 104%, a remaining activity at 10 µM (VRK1(h); [2]) of 82% and a remaining activity at 10 µM (TTBK1(h); [2]) of 104%. The remaining activity at 10 µM (PDGFRβ(h); [2]) was 104%, the remaining activity at 10 µM (ALK6(h); [2]) was 86% and the remaining activity at 10 µM (Blk(h); [2]) was 100%. The remaining activity at 10 µM (Cdc7/cyclinB1(h); [2]) was 79%.
In the case of `Fc1ccc2ncnc(NCCc3ccc(Cl)cc3)c2c1` [5at, N-[2-(4-Chlorophenyl)Ethyl]-6-Fluoro-4-Quinazolinamine], the remaining activity at 10 µM (PIP5K1g(h); [3]) was 101%, the remaining activity at 10 µM (VRK1(h); [3]) was 79% and the remaining activity at 10 µM (TTBK1(h); [3]) was 114%. It also gave a remaining activity at 10 µM (PDGFRβ(h); [3]) of 109%, a remaining activity at 10 µM (ALK6(h); [3]) of 92% and a remaining activity at 10 µM (Blk(h); [3]) of 91%. The remaining activity at 10 µM (Cdc7/cyclinB1(h); [3]) was 76%.
`COc1ccc2ncnc(Nc3cccc(F)c3)c2c1` [5ay, N-(3-Fluorophenyl)-6-Methoxy-4-Quinazolinamine] gave a remaining activity at 10 µM (PIP5K1g(h); [4]) of 107%, a remaining activity at 10 µM (VRK1(h); [4]) of 89% and a remaining activity at 10 µM (TTBK1(h); [4]) of 112%. The remaining activity at 10 µM (PDGFRβ(h); [4]) was 113%, the remaining activity at 10 µM (ALK6(h); [4]) was 87% and the remaining activity at 10 µM (Blk(h); [4]) was 85%. For the same molecule, the remaining activity at 10 µM (Cdc7/cyclinB1(h); [4]) was 73%.
